3 compounds from patent US20250302080A1, “SWEETNESS AND/OR FLAVOR ENHANCER” (AJINOMOTO CO., INC., priority 2022, published 2025) can be followed below.

A short description of experiment [1]: Sensory evaluation of black tea au lait flavor intensity (Experimental Example 15). As to conditions: added alone; for black tea au lait flavor-enhancing effect (in words): 0.0001-1000 ppb. The protocol:
(§1) Instant black tea au lait powder (product name: Blendy (registered trademark) Stick Black Tea Au Lait (Ajinomoto AGF, Inc.)) was prepared according to the instructions, and then diluted 1.2 times with filtered water to prepare negative control black tea au lait.
(§2) When the carbohydrate content of Blendy (registered trademark) Stick Black Tea Au Lait is calculated as the total sucrose content, the negative control black tea au lait contains 5.2 g of sucrose per 100 g.
(§3) A sensory evaluation of sweetness intensity and black tea au lait flavor intensity was performed for each sample by a panel of three experts according to the following evaluation criteria.
(§4) Sweetness intensity and black tea au lait flavor intensity were each evaluated by 0.0 to 10.0 point based on the following reference samples (negative control (hereinafter referred to as NC) (0.0 point); reference 1 (hereinafter referred to as R1) (5.0 points); reference 2 (hereinafter referred to as R2) (10.0 points)). The average score (rounded to two decimal places) of each expert panelist was calculated. An average score of 3.0 points or more was considered to be functional. • NC (0.0 point): black tea au lait (product name: Black Tea Au Lait, Ajinomoto AGF, Inc.) prepared according to the instructions, and then diluted 1.2 times with filtered water (i.e., negative control black tea au lait). • R1 (5.0 points): with 0.26 g of sugar added per 99.74 g of NC. • R2 (10.0 points): with 0.52 g of sugar added per 99.48 g of NC.

Experiment [2] in a line: Sensory evaluation of sweetness intensity in yogurt drink (Experimental Example 14). The following applies: added alone, 3.0 points or more. The protocol: (§5) Yogurt drink (product name: 7 Premium Yogurt Drink, SEVEN-ELEVEN JAPAN CO., LTD.) was diluted 1.2 times with filtered water to prepare negative control yogurt drink.
(§6) When the carbohydrate content of 7 Premium Yogurt Drink is calculated as the total sucrose content, the negative control yogurt drink contains 10.75 g of sucrose per 100 g.
(§7) A sensory evaluation of sweetness intensity and yogurt flavor intensity was performed for each sample by a panel of three experts according to the following evaluation criteria.
(§8) Sweetness intensity and yogurt flavor intensity were each evaluated by 0.0 to 10.0 point based on the following reference samples (negative control (hereinafter referred to as NC) (0.0 point); reference 1 (hereinafter referred to as R1) (5.0 points); reference 2 (hereinafter referred to as R2) (10.0 points)). The average score (rounded to two decimal places) of each expert panelist was calculated. An average score of 3.0 points or more was considered to be functional. • NC (0.0 point): yogurt drink (product name: 7 Premium Yogurt Drink, SEVEN-ELEVEN JAPAN CO., LTD.) diluted 1.2 times with filtered water. • R1 (5.0 points): with 0.54 g of sucrose added per 99.46 g of NC. • R2 (10.0 points): with 1.08 g of sucrose added per 98.92 g of NC.

Experiment [3] can be described thus: Sensory evaluation of cafe au lait flavor intensity in sucrose-containing cafe au lait (Experimental Example 16). The following applies: added alone, 3.0 points or more. The procedure:
Negative control cafe au lait was prepared by the same method as in Experimental Example 6.
A sensory evaluation of the presence or absence of cafe au lait flavor intensity enhancement was performed for each sample by a panel of four experts according to the following evaluation criteria.
(§9) Cafe au lait flavor intensity was evaluated by 0.0 to 10.0 point based on the following reference samples (negative control (hereinafter referred to as NC) (0.0 point); reference 1 (hereinafter referred to as R1) (5.0 points); reference 2 (hereinafter referred to as R2) (10.0 points)). The average score (rounded to two decimal places) of each expert panelist was calculated. An average score of 3.0 points or more was considered to be functional. • NC (0.0 point): cafe au lait prepared by mixing starting materials at the blending rate in Table 6 in Experimental Example 6 (i.e., negative control cafe au lait). • R1 (5.0 points): drink with 0.15 g of sucrose added per 99.85 g of NC. • R2 (10.0 points): drink with 0.3 g of sucrose added per 99.70 g of NC.

Experiment [4] can be described thus: Sensory evaluation of sweetness intensity in sucrose-containing cafe au lait (Experimental Examples 6-10). The following applies: added alone, 3.0 points or more. The procedure:
The starting materials were mixed according to the blending rate in Table 6 to prepare a cafe au lait containing sucrose (hereinafter referred to as “negative control cafe au lait”).
A sensory evaluation of the presence or absence of sweetness intensity enhancement was performed for each sample by a panel of four experts according to the following evaluation criteria.
as §9, with “Sweetness” for “Cafe au lait flavor”, “6” for “6 in Experimental Example 6”, “0.30” for “0.3”
A sensory evaluation of sweetness intensity was performed for each sample by a panel of four experts according to the same evaluation criteria as in Experimental Example 6.
A sensory evaluation of the presence or absence of sweetness intensity enhancement was performed for each sample by a panel of four experts according to the same evaluation criteria as in Experimental Example 6.

Experiment [5] is described as follows: Sensory evaluation of sweetness intensity in RebA solution (Experimental Example 12). The following applies: added alone, 3.0 points or more. The procedure: A negative control RebA solution (0.073 wt % […] solution) was prepared by dissolving RebA in filtered water.
A sensory evaluation of sweetness intensity was performed for each sample by a panel of three experts according to the following evaluation criteria.
Sweetness intensity was evaluated by 0.0 to 10.0 points based on the following reference samples (negative control (hereinafter referred to as NC) (0.0 point); reference 1 (hereinafter referred to as R1) (5.0 points); reference 2 (hereinafter referred to as R2) (10.0 points)). The average score (rounded to two decimal places) of each expert panelist was calculated. An average score of 3.0 points or more was considered to be functional. • NC (0.0 point): 0.073 wt % RebA solution (solvent: filtered water) • R1 (5.0 points): 0.077 wt % RebA solution (solvent: filtered water) • R2 (10.0 points): 0.080 wt % RebA solution (solvent: filtered water)

Experiment [6] is described as follows: Sensory evaluation of sweetness intensity in black tea au lait (Experimental Example 15). As to conditions: added alone; for concentration at which a sweetness-enhancing effect was confirmed: 3.0 points or more. The procedure: as §1, §2, §3, §4
A short description of experiment [7]: Sensory evaluation of yogurt flavor intensity in yogurt drink (Experimental Example 14). The following applies: added alone, 3.0 points or more. The procedure: as §5, §6, §7, §8

Bounds are passed on as bounds.

`CC(C)CCC(=O)O` [4-methylpentanoic acid]: the “concentration at which a black tea au lait flavor-enhancing effect was confirmed” value in experiment [1] (3.0 points or more) is on record as no less than 1 ppb. Besides, the “concentration at which a sweetness-enhancing effect was confirmed” value is listed as no less than 1 ppb in experiment [2], no less than 0.1 ppb in experiment [4], 100 ppb in experiment [5] and no less than 100 ppb in experiment [6]. Also, the “concentration at which a cafe au lait flavor-enhancing effect was confirmed” value in experiment [3] is no less than 1 ppb. In experiment [7], the “concentration at which a yogurt flavor-enhancing effect was confirmed” value is reported as no less than 0.1 ppb.
Regarding `CC1=C(O)C(=O)CC1` [cyclotene], in experiment [1], the “black tea au lait flavor-enhancing effect (in words)” value is “concentration-dependent black tea au lait flavor-enhancing effect”. For the same compound, the “concentration at which a sweetness-enhancing effect was confirmed” value in experiment [2] is recorded as no less than 0.01 ppb; in experiment [4], no less than 0.1 ppb; in experiment [5], 10 ppb; in experiment [6] it was no less than 1 ppb. Moreover, the “concentration at which a cafe au lait flavor-enhancing effect was confirmed” value in experiment [3] is no less than 0.1 ppb. For the same compound, the “concentration at which a yogurt flavor-enhancing effect was confirmed” value in experiment [7] is no less than 0.01 ppb.
Take `CCCCCCCCCC(=O)O` [decanoic acid]: the “black tea au lait flavor-enhancing effect (in words)” value in experiment [1] is reported as “concentration-dependent black tea au lait flavor-enhancing effect”. Moreover, the results for the “concentration at which a sweetness-enhancing effect was confirmed” value in experiment [2], in experiment [4] and in experiment [5] were no less than 0.1 ppb, no less than 1 ppb and 10 ppb, respectively. In addition, the “concentration at which a cafe au lait flavor-enhancing effect was confirmed” value in experiment [3] was no less than 0.01 ppb. In experiment [6] (0.0001-1000 ppb), the “sweetness-enhancing effect (in words)” value is “concentration-dependent sweetness-enhancing effect”. Moreover, the “concentration at which a yogurt flavor-enhancing effect was confirmed” value in experiment [7] was no less than 0.01 ppb.
